Experimental data from patent EP1463487B1, “LIPOSOMAL DELIVERY OF VITAMIN E BASED COMPOUNDS” (RESEARCH DEVELOPMENT FOUNDATION, priority 2001, dated 2003).
Read-outs that look alike come from different tables or passages of the source. Marks after values point to notes of the source that are not given here.

Tests used:
66 cl.4-GFP cells [1] = assay: Visible lung metastases of 66 cl.4-GFP tumors in Balb/c mice; assay type: in vivo; parameters: Inhibition (%) of visible lung metastases: concentration or dose not given beside the values; conditions: liposomal formulations by aerosol; for Visible lung metastases/animal: 36 µg per animal per day, 19 or 21 days; for Inhibition (%) of visible lung metastases: versus control
Excerpt: (§1) Metastastic lesions in the five lung lobes were counted visually at time of sacrifice. Fluorescent green micro-metastatic cancer cell colonies in the left lung lobe and lymph nodes were counted using a Nikon fluorescence microscope (TE-200) with a 20 x objective (200 x magnification) and Image-Pro Plus (version 4.1; Media Cybernetics, Silver Spring, MD) software associated with the microscope. Fluorescent lesions were separated into three size grouping: <5 µm , 5-10 µm and >10 µm.

66 cl.4-GFP tumors = assay: TUNEL assay for apoptosis in tumor sections in vivo; parameters: species or system Balb/c mice; conditions: for % Enhanement of TUNEL Positive Apopotic Cells/Area: liposomal formulation by aerosol, versus control
Excerpt: Deparaffinized sections (5 µm) of tumor tissue were used to assess apoptosis using reagents supplied in the ApopTag In Situ Apoptosis Detection kit (Intergen, Purchase, NY) according to the manufacturer's instructions. Nuclei that stained brown were scored as positive for apoptosis and those that stained blue were scored as negative. At least sixteen 400X microscopic fields were scored per tumor. Data are presented as the mean ± S. E number of apoptotic cells counted in three separate tumors from each group. Pictures of tumor tissue were taken at 1000X magnification.

[2] = system: proliferation biomarker KI-67; assay: KI-67 immunohistochemistry of tumor sections (cell proliferation); assay type: in vivo, Balb/c mice; conditions: for % Reduction of KI67: liposomal formulation by aerosol, versus control
CD31 = CD31 immunohistochemistry of tumor sections (tumor blood vessel numbers); assay type: in vivo, Balb/c mice; conditions: for % Reduction of CD31 Blood Vessel Nos/Area: liposomal formulation by aerosol, versus control
66 cl.4-GFP cells [3] = assay: Fluorescent lung micrometastases of 66 cl.4-GFP tumors in Balb/c mice; assay type: in vivo
Excerpt: as §1
(§2) At sacrifice, the left lung lobe of each mouse of flash frozen and saves for detection of GFP expressing micrometatstic lesions via fluorescent microscopy.

66 cl.4-GFP cells [4] = assay: Tumor growth of 66 cl.4-GFP mammary tumor cells implanted in Balb/c mice; conditions: for tumor growth, determined by tumor volume, versus controls: liposomal preparations delivered by aerosol, 36 µg per animal per day; for reduced tumor growth: liposome aerosol, 36 µg compound per day
Protocol: 66 cl.4-GFP cells were harvested by trypsinization, centrifuged, resuspended in McCoy's media, containing no supplements at a density of 2 X 10^5/100µl. Mice were injected in the inguinal area at a point equal distance between the 4th and 5th nipples on the right side using a 23 gauge needle.
50 mice were assigned (10 per group) to aerosol treatment, aerosol control, oral treatment, oral control, or to the no treatment group so that the average tumor volume for all groups were closely matched. […] Tumors were measured using calipers every other day, and volumes were calculated using the formula: volume (mm^3) = [width (mm)^2 X length (mm)] /2. Body weights were determined weekly.
Balb/c mice were injected with 200,000 66 cl.4 GFP cells subcutaneous in the mammary fat pad area between the 4th and 5th nipple on the right side of the body.
Mice are injected with 200,000 66cl.4 GFP murine mammary tumor cells as described on day 0. Treatments are initiated on day 9 when tumors reached 1-3 mm in size. […] Data represent the mean +/- Standard Error (SE), N = 10 mice for control and treatment groups.
Balb/c mice were injected s. c. with 2 X 10^5 66 cl.4-GFP cells in the inguinal area between the 4th and 5th nipple on the right side of the body. When tumors reached 2 x 2-4 x 4 mm (9 days after tumor injection), mice were placed into 5 groups ((Group 1: untreated control, Group 2: liposome/aerosol control, Group 3: liposomal α-TEA aerosol treatment, Group 4: peanut oil/gavage control, Group 5: α-TEA in peanut oil/gavage treatment) of 10 mice/group) such that the mean tumor volume of each group was closely matched. Daily treatments were initiated on day 9 after tumor injection.
Balb/c mice were injected with 200,000 66 cl.4 GFP cells subcutaneous in the mammary fat pad area between the 4th and 5th nipple on the right side of the body. […] Animals were treated with α-TEA in liposome, vitamin E succinate in liposome, or control liposome alone via aerosol, 7 days per week, for 21 days. Animals were given 75 mg compound via nebulization per day such that each animal received 36 µg compound per day.
The size of the tumors, 9 - 21 days after injection of 200,000 66 cl.4 GFP cells between the 4th and 5th nipple on the right side of each mouse, is determined. Treatments are initiated on day 9 after tumor inoculation. Each group consists of n=10 +/- SE. Gavage Treatment = Treatments of 5 mg of α-TEA in ethanol and peanut oil (0.1 ml volume) are administered daily starting on day 9 after tumor inoculation and continuing through day 21. Gavage Control = Mice received peanut oil and ethanol alone (0.ml volume)/daily, starting on day 9 after tumor inoculation and continuing through day 21. Data (tumor size) are depicted as the mean +/- standard error for days 9, 11, 13, 15, 17, 19, and 21.
Balb/c mice were injected with 200,000 66 cl.4 GFP cells subcutaneous in the mammary fat pad area between the 4th and 5th nipple on the right side of the body. […] Animals were treated with α-TEA in liposome, vitamin E succinate in liposome, or control liposome alone via oral gavage, 2 times per day, 7 days per week, for 21 days. Animals were given a total of 6 mg compound per day.

[5] = after thirty minutes, cited from earlier work
66 cl.4-GFP cells [6] = assay: Fluorescent lymph node micrometastases of 66 cl.4-GFP tumors in Balb/c mice; assay type: in vivo
Excerpt: as §1, §2

MDA-MB-435 GFP FL cells = assay: Tumor growth of MDA-MB-435 GFP FL breast cancer cells in nude mice; assay type: in vivo, Nu/Nu athymic nude mice; conditions: day 35; α-TEA in liposome via aerosol; MSC 3ppm in water by gavage
Protocol: Animals were given a total of 8 mg compound per day. […] Alpha-TEA liposome gavage reduced tumor growth by 68, 75, 78, 79 and 79% on days 27, 29, 31, 33, and 35, respectively (Fig. 15).
Animals were gavaged 3ppm methylselenocysteine (MSC) in water, α-TEA in liposome via aerosol, or gavaged 10 mg/kg b.w. trans-resveratrol (t-RES) in first 1:1, EtOH: physiological saline, and starting at day 24, 6.5% EtOH and 93.5% Neobee oil. A combination group was treated with each of the above three compounds, and a control group was treated with aerosolized liposome, 100 µl water, and 50 µl of the t-Res solvent. Animals were treated seven days a week, for 35+ days.

66 cl.4-GFP cells [7] = assay: Apoptosis by morphological evaluation of DAPI-stained nuclei; assay type: cell-based, mouse; conditions: three days
[8] = liposomal formulation delivered by aerosol, tumor sections
[9] = Aerosol, in nebulizer per mouse: α-TEA 5 mg/d, 9NC 2 µg/d, combination 5 mg+2µg/d
[10] = aerosol liposome delivery, 30 min

## CC(=O)Oc1c(C)c(C)c2c(c1C)CCC(C)(CCCC(C)CCCC(C)CCCC(C)C)O2 (racemic) [dl-α tocopherol acetate]
66 cl.4-GFP cells [1]
  Visible lung metastases/animal: 0.3
  Inhibition (%) of visible lung metastases: 82%

## Cc1c(C)c2c(c(C)c1O)CCC(C)(CCCC(C)CCCC(C)CCCC(C)C)O2 (racemic) [dl-α-tocopherol, dl-alpha-tocopherol]
66 cl.4-GFP tumors
  % Enhanement of TUNEL Positive Apopotic Cells/Area: 44%
66 cl.4-GFP tumors; listed as dl-alpha-tocopherol
  % Enhanement of TUNEL Positive Apopotic Cells/Area: 44%
66 cl.4-GFP tumors; [8]
  TUNEL Positive Apopotic Cells/Area: 2.5
[2]
  % Reduction of KI67: 33%
[2]; listed as dl-alpha-tocopherol
  % Reduction of KI67: 33%
[2]; [8]
  KI67 Inhibition of Proliferation (%): 40%
66 cl.4-GFP cells [1]
  Visible lung metastases/animal: 0.1
  Inhibition (%) of visible lung metastases: 94** %
CD31
  % Reduction of CD31 Blood Vessel Nos/Area: 51%
CD31; listed as dl-alpha-tocopherol
  % Reduction of CD31 Blood Vessel Nos/Area: 51%
CD31; [8]
  CD31 Blood Vessel Nos/Area: 112

## CC[C@@]1(O)C(=O)OCc2c1cc1n(c2=O)Cc2cc3c([N+](=O)[O-])cccc3nc2-1 [9-nitrocamptothecin]
66 cl.4-GFP cells [3]; [9]
  Inhibition (%) Metastases Lung: 55%
66 cl.4-GFP cells [4]; [9]
  Inhibition (%) Tumor Growth: 58%
[5]; [10]
  Levels of 9-nitrocamptothecin in the brain: 61 ng/g
  Levels of 9-nitrocamptothecin in the liver: 192 ng/g
  Levels of 9-nitrocamptothecin in the lungs: 310 ng/g
[5]; intramuscular delivery, 30 min
  Levels of 9-nitrocamptothecin in the liver: 136 ng/g
  Levels of 9-nitrocamptothecin in the lungs: 2 to 4 ng/g
[5]; intramuscular delivery
  Levels of 9-nitrocamptothecin in the brain: 0 ng/g
66 cl.4-GFP cells [6]; [9]
  Inhibition (%) Metastases Lymphnode: 60%

## C[Se]C[C@H](N)C(=O)O [MSC, methylselenocysteine, reference compound]
MDA-MB-435 GFP FL cells
  tumor volume decrease from the control: 47.2%

## Cc1cc(O)cc2c1O[C@](C)(CCC[C@H](C)CCC[C@H](C)CCCC(C)C)CC2 [RRR-delta tocopherol, RRR-delta-tocopherol]
66 cl.4-GFP cells [1]
  Visible lung metastases/animal: 0.3
  Inhibition (%) of visible lung metastases: 82%

## Cc1c(C)c2c(c(C)c1O)CC[C@@](C)(CCC[C@H](C)CCC[C@H](C)CCCC(C)C)O2 [RRR-α tocopherol, RRR-α-tocopherol]
66 cl.4-GFP cells [1]
  Visible lung metastases/animal: 1.7
  Inhibition (%) of visible lung metastases: 0%
66 cl.4-GFP cells [4]
  tumor growth, determined by tumor volume, versus controls: enhanced tumor growth

## CC(C)=CCC/C(C)=C/CC/C(C)=C/CC[C@]1(C)CCc2c(C)c(O)c(C)c(C)c2O1 [RRR-α-tocotrienol, RRR-alpha-tocotrienol]
66 cl.4-GFP cells [1]
  Visible lung metastases/animal: 0.4
  Inhibition (%) of visible lung metastases: 77%

## Cc1c(O)cc2c(c1C)O[C@](C)(CCC[C@H](C)CCC[C@H](C)CCCC(C)C)CC2 [RRR-γ tocopherol, RRR-γ-tocopherol]
66 cl.4-GFP cells [1]
  Visible lung metastases/animal: 1.15
  Inhibition (%) of visible lung metastases: 32%
66 cl.4-GFP cells [4]
  tumor growth, determined by tumor volume, versus controls: enhanced tumor growth

## Cc1c(C)c2c(c(C)c1OC(=O)CCC(=O)O)CC[C@@](C)(CCC[C@H](C)CCC[C@H](C)CCCC(C)C)O2 [vitamin E succinate, RRR-α-tocopheryl succinate, reference compound]
66 cl.4-GFP cells [3]; liposomal formulation via gavage, 6 mg compound per day, 21 days
  effect on lung metastasis: no effect on lung metastasis
66 cl.4-GFP cells [7]; 2.5 µg/ml
  apoptosis: 3%
66 cl.4-GFP cells [7]; 5 µg/ml
  apoptosis: 5%
66 cl.4-GFP cells [7]; 10 µg/ml
  apoptosis: 16%
66 cl.4-GFP cells [7]; 20 µg/ml
  apoptosis: 34%
66 cl.4-GFP cells [4]; 21 days, day 15
  reduced tumor growth: 76%
66 cl.4-GFP cells [4]; 21 days, day 17
  reduced tumor growth: 76%
66 cl.4-GFP cells [4]; 21 days, day 19
  reduced tumor growth: 69%
66 cl.4-GFP cells [4]; 21 days, day 21
  reduced tumor growth: 68%
66 cl.4-GFP cells [4]; liposome gavage, 6 mg compound per day, 21 days
  tumor growth versus control liposome: did not reduce tumor growth
66 cl.4-GFP cells [6]; liposome via gavage, 6 mg compound per day, 21 days
  effect on lymph node micrometastatic lesions (Fig. 14B): not effective in decreasing micrometastatic lung lesions
